According to patent publication US20040122026A1, “Imidazolidine compounds” (Millennium Pharmaceuticals, Inc., priority 2002, published 2004):

Target: T1, CXCR3 (Homo sapiens, UniProt P49682)
T1 construct: expressed in transfected cells; membrane preparation
T1 sequence (P49682 1-368): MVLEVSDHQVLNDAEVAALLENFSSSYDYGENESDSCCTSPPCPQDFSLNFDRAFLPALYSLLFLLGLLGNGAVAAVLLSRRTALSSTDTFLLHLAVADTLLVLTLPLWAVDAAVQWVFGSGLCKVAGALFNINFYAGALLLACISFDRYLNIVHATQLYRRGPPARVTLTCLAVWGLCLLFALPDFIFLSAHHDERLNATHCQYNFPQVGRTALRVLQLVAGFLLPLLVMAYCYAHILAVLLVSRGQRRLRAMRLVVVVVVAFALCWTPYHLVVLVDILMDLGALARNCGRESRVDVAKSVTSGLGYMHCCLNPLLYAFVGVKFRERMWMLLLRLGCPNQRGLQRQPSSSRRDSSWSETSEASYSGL
Assay: CXCR3/IP-10 radioligand binding (125I-IP-10 competition on CXCR3.L1/2 cell membranes)
Conditions: test compound 10 μmol/L; 125I-labeled IP-10 binding to CXCR3.L1/2 transfectant cell membranes; results Table 5
Source text: The activity of the compounds of the present invention can be assessed using a suitable assay, such as a receptor binding assay, a chemotaxis assay, an extracellular acidification assay or a calcium flux assay (see, for example, Hesselgesser et al., J. Biol. Chem., 273(25): 15687-15692 (1998) and WO 98/02151). For example, as described herein, small organic molecule antagonists of CXCR3/IP-10 binding have been identified utilizing cells engineered to express recombinant human CXCR3 (CXCR3.L1/2) and which bind ^125I-IP-10 and chemotax in response to IP-10, Mig, or I-TAC. Specifically, a high through-put receptor binding assay, which monitors ^125I-IP-10 biding to CXCR3.L1/2 cell membranes, was used to identify small molecule antagonists. Binding assays can be performed using other ligands of CXCR3, such as, Mig, and/or I-TAC.
CXCR3/IP-10 Radioligand Binding:
CXCR3.L1/2 Membrane Preparation:
CXCR3.L1/2 cells were pelleted by centrifugation and stored at −80° C. The cells were lysed by thawing and resuspending at about 1.5×10^7 cells/mL in a hypotonic buffer (5 mmol/L HEPES (pH 7.2), 2 mmol/L EDTA, 10 μg/mL each leupeptin, aprotinin, and chymostatin, and 100 μg/mL PMSF (all from Sigma, St. Louis)). Nuclei and cellular debris are removed by centrifugation ([…], at 4° C.) for 10 min. The supernatant was transferred to chilled centrifuge tubes (Nalge, Rochester, N.Y.) and the membrane fraction was recovered by centrifugation (25,000 g at 4° C.) for 45 min. The membrane pellet was resuspended in freezing buffer (10 mmol/L HEPES (pH 7.2), 300 mmol/L Sucrose, 5 μg/mL each of leupeptin, aprotinin, and chymostatin, and 10 μg/mL PMSF). The total protein concentration was determined using a coomassie blue staining protein concentration assay kit (BioRad). The membrane preparations are aliquoted and stored at −80° C. until time of use.
CXCR3/IP-10 binding was performed in 96-well polypropylene plates (Costar) in a final volume of 0.1 mL of HBB buffer (50 mmol/L Hepes pH 7.4, 1 mmol/L CaCl2, 5 mmol/L MgCl2, 0.02% sodium azide, 0.5% BSA (bovine serum albumin)), containing 1 to 5 μg CXCR3.L1/2 transfectant cell membrane protein and 0.05 to 0.2 nmol/L of ^125I-labeled IP-10 (NEN, Boston, Mass.). Competition binding experiments were performed by including variable concentrations of unlabeled IP-10 or test compound. Nonspecific binding was determined following the addition of a 250 nmol/L unlabelled IP-10. Samples were incubated for 60 min at room temperature, and bound and free tracer (^125I-labeled IP-10) were separated by filtration through 96-well GF/B filterplates presoaked in 0.3% polyethyleneimine. The filters were washed in HBB further supplemented with 0.5 mol/L NaCl, dried, and the amount of bound radioactivity determined by liquid scintillation counting. The competition is presented as the percent specific binding as calculated by 100×[(S−B)/(T−B)], where S is the radioactivity bound for each sample, B is background binding, and T is total bound in the absence of competitors. Duplicates were used throughout the experiments.

SMILES	inhibition at 10 µM
Cc1cc(C)cc(CN2CCN(CCC(=O)N(C)c3cccc(CN4CCCCC4)c3)C2=C(C#N)C#N)c1 [Compound 1, N-Methyl-N-[3-(piperidinomethyl)phenyl]-3-[3-(3,5-dimethylbenzyl)-2-dicyanomethylideneimidazolidin-1-yl]propionamide]	92%
CCCN(C(=O)CCN1CCN(Cc2cc(C)cc(C)c2)C1=C(C#N)C#N)c1cccc(CN2CCCCC2)c1 [Compound 2, N-Propyl-N-[3-(piperidinomethyl)phenyl]-3-[3-(3,5-dimethylbenzyl)-2-dicyanomethylideneimidazolidin-1-yl]propionamide]	99%
Cc1cc(C)cc(CN2CCN(CCC(=O)N(c3cccc(CN4CCCCC4)c3)C(C)C)C2=C(C#N)C#N)c1 [Compound 3, N-Isopropyl-N-[3-(piperidinomethyl)phenyl]-3-[3-(3,5-dimethylbenzyl)-2-dicyanomethylideneimidazolidin-1-yl]propionamide]	106%
Cc1cc(C)cc(CN2CCN(CCC(=O)N(c3cccc(CN4CCCCC4)c3)C3CCCCC3)C2=C(C#N)C#N)c1 [Compound 4, N-Cyclohexyl-N-[3-(piperidinomethyl)phenyl]-3-[3-(3,5-dimethylbenzyl)-2-dicyanomethylideneimidazolidin-1-yl]propionamide]	109%
Cc1cc(C)cc(CN2CCN(CCC(=O)N(Cc3ccccc3)c3cccc(CN4CCCCC4)c3)C2=C(C#N)C#N)c1 [Compound 5, N-Benzyl-N-[3-(piperidinomethyl)phenyl]-3-[3-(3,5-dimethylbenzyl)-2-dicyanomethylideneimidazolidin-1-yl]propionamide]	95%
CC(=O)OCCN(C(=O)CCN1CCN(Cc2cc(C)cc(C)c2)C1=C(C#N)C#N)c1cccc(CN2CCCCC2)c1 [Compound 6, N-(2-Acetoxyethyl)-N-[3-(piperidinomethyl)phenyl]-3-[3-(3,5-dimethylbenzyl)-2-dicyanomethylideneimidazolidin-1-yl]propionamide]	93%
Cc1cc(C)cc(CN2CCN(CCC(=O)N(CCO)c3cccc(CN4CCCCC4)c3)C2=C(C#N)C#N)c1 [Compound 7, N-(2-Hydroxyethyl)-N-[3-(piperidinomethyl)phenyl]-3-[3-(3,5-dimethylbenzyl)-2-dicyanomethylideneimidazolidin-1-yl]propionamide]	83%
CCOC(=O)CN(C(=O)CCN1CCN(Cc2cc(C)cc(C)c2)C1=C(C#N)C#N)c1cccc(CN2CCCCC2)c1 [Compound 8, N-Ethoxycarbonylmethyl-N-[3-(piperidinomethyl)phenyl]-3-[3-(3,5-dimethylbenzyl)-2-dicyanomethylideneimidazolidin-1-yl]propionamide]	95%
Cc1cc(C)cc(CN2CCN(CCC(=O)N(CC(=O)O)c3cccc(CN4CCCCC4)c3)C2=C(C#N)C#N)c1 [Compound 9, N-Carboxymethyl-N-[3-(piperidinomethyl)phenyl]-3-[3-(3,5-dimethylbenzyl)-2-dicyanomethylideneimidazolidin-1-yl]propionamide]	83%
Cc1cc(C)cc(CN2CCN(CCC(=O)N(CCCF)c3cccc(CN4CCCCC4)c3)C2=C(C#N)C#N)c1 [Compound 11, N-(3-Fluoropropyl)-N-[3-(piperidinomethyl)phenyl]-3-[3-(3,5-dimethylbenzyl)-2-dicyanomethylideneimidazolidin-1-yl]propionamide]	95%
Cc1cc(C)cc(CN2CCN(CCC(=O)N(CC(N)=O)c3cccc(CN4CCCCC4)c3)C2=C(C#N)C#N)c1 [Compound 12, N-Aminocarbonylmethyl-N-[3-(piperidinomethyl)phenyl]-3-[3-(3,5-dimethylbenzyl)-2-dicyanomethylideneimidazolidin-1-yl]propionamide]	84%
Cc1cc(C)cc(CN2CCN(CCC(=O)N(Cc3nnn[nH]3)c3cccc(CN4CCCCC4)c3)C2=C(C#N)C#N)c1 [Compound 13, N-(1H-tetrazol-5-ylmethyl)-N-[3-(piperidinomethyl)phenyl]-3-[3-(3,5-dimethylbenzyl)-2-dicyanomethylideneimidazolidin-1-yl]propionamide]	67%

Same assay, conditions: test compound 10 μmol/L; 125I-labeled IP-10 binding to CXCR3.L1/2 transfectant cell membranes; results Table 6

SMILES	inhibition at 10 µM	% inhibition at 10 μmol/L
Cc1cccc(CN2CCN(CCC(=O)N(c3cccc(CN4CCCCC4)c3)C(C)C)C2=C(C#N)C#N)c1C [Compound 14, N-Isopropyl-N-[3-(piperidinomethyl)phenyl]-3-[3-(2,3-dimethylbenzyl)-2-dicyanomethylideneimidazolidin-1-yl]propionamide]	105%	
CC(C)N(C(=O)CCN1CCN(C2Cc3cccc4cccc2c34)C1=C(C#N)C#N)c1cccc(CN2CCCCC2)c1 (stereo not drawn) [Compound 15, N-Isopropyl-N-[3-(piperidinomethyl)phenyl]-3-[3-(1-acenaphthenyl)-2-dicyanomethylideneimidazolidin-1-yl]propionamide]	95%	
CC(C)N(C(=O)CCN1CCN(Cc2cc(Cl)cc(Cl)c2)C1=C(C#N)C#N)c1cccc(CN2CCCCC2)c1 [Compound 17, N-Isopropyl-N-[3-(piperidinomethyl)phenyl]-3-[3-(3,5-dichlorobenzyl)-2-dicyanomethylideneimidazolidin-1-yl]propionamide]	93%	
CCCN(C(=O)CCN1CCN(Cc2cc(Cl)cc(Cl)c2)C1=C(C#N)C#N)c1cc(CN2CCCCC2)ccc1C [Compound 18, N-Propyl-N-[2-methyl-5-(piperidinomethyl)phenyl]-3-[3-(3,5-dichlorobenzyl)-2-dicyanomethylideneimidazolidin-1-yl]propionamide]	94%	
CCCN(C(=O)CCN1CCN(Cc2cc(Cl)cc(Cl)c2)C1=C(C#N)C#N)c1cc(CN2CCCCC2)ccc1Cl [Compound 19, N-Propyl-N-[2-chloro-5-(piperidinomethyl)phenyl]-3-[3-(3,5-dichlorobenzyl)-2-dicyanomethylideneimidazolidin-1-yl]propionamide]	101%	
CCCN(C(=O)CCN1CCN(Cc2cc(Cl)cc(Cl)c2)C1=C(C#N)C#N)c1cccc(CN2CCCCC2)c1C [Compound 20, N-Propyl-N-[2-methyl-3-(piperidinomethyl)phenyl]-3-[3-(3,5-dichlorobenzyl)-2-dicyanomethylideneimidazolidin-1-yl]propionamide]	68%	
CCCNCc1cccc(N(CC)C(=O)CCN2CCN(Cc3cc(C)cc(C)c3)C2=C(C#N)C#N)c1 [Compound 21, N-Ethyl-N-[3-(propylaminomethyl)phenyl]-3-[3-(3,5-dimethylbenzyl)-2-dicyanomethylideneimidazolidin-1-yl]propionamide]	71%	
Cc1cc(C)cc(CN2CCN(CCC(=O)N(c3cccc(CN4CCOCC4)c3)C(C)C)C2=C(C#N)C#N)c1 [Compound 22, N-Isopropyl-N-[3-(morpholinomethyl)phenyl]-3-[3-(3,5-dimethylbenzyl)-2-dicyanomethylideneimidazolidin-1-yl]propionamide]	93%	
Cc1cc(C)cc(CN2CCN(CCC(=O)N(c3cccc(CN4CCN(C)CC4)c3)C(C)C)C2=C(C#N)C#N)c1 [Compound 23, N-Isopropyl-N-[3-(4-methyl-1-piperazinylmethyl)phenyl]-3-[3-(3,5-dimethylbenzyl)-2-dicyanomethylideneimidazolidin-1-yl]propionamide]		92%
